In publication PMC3206013, “Unique Interplay between Sugar and Lipid in Determining the Antigenic Potency of Bacterial Antigens for NKT Cells” (PLoS Biology, 2011):
Where a chain is given by its changes, count along the chain named.

How the values were obtained:
Test in all cases: SPR loading efficiency, L363 Fab on immobilised loaded CD1d
Type in all cases: binding
[1] = molecular target: T1, mCD1d (birA-tag mCD1d/β2m) (Mus musculus, UniProt P11609, L168V); settings: 16 h with 1 µg/ml α-GalCer; WT set at 100%
T1 construct: gene Cd1d1; soluble glycosylated CD1d/β2m heterodimer, birA tag, biotinylated; with Beta-2-microglobulin
T1 sequence (P11609 19-297 L168V): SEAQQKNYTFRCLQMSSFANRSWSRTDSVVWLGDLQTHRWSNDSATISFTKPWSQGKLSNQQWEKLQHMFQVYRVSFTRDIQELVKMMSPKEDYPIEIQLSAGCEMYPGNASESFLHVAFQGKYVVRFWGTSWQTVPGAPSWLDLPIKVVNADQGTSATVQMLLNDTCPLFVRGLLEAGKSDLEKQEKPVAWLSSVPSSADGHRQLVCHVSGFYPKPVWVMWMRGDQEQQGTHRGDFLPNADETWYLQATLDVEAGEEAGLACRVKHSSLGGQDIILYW
T1 sequence (P01887 21-119 partner): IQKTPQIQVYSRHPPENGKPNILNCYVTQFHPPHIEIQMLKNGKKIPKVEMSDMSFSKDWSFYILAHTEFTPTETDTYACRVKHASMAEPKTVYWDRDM

[2] = molecular target: T2, mCD1d (birA-tag mCD1d/β2m) (Mus musculus, UniProt P11609, M180A); settings: 16 h with 1 µg/ml α-GalCer; WT set at 100%; printed Met162Ala and M162A, Met62Ala
T2 construct: gene Cd1d1; soluble glycosylated CD1d/β2m heterodimer, birA tag, biotinylated; with Beta-2-microglobulin
T2 sequence (P11609 19-297 M180A): T1 sequence (P11609 19-297 L168V) with V150L, M162A
T2 sequence (P01887 21-119 partner): T1 sequence (P01887 21-119 partner)

[3] = molecular target: T3, mCD1d (birA-tag mCD1d/β2m) (Mus musculus, UniProt P11609); settings: 16 h with 1 µg/ml α-GalCer; reference set at 100%
T3 construct: gene Cd1d1; soluble glycosylated CD1d/β2m heterodimer, birA tag, biotinylated; with Beta-2-microglobulin
T3 sequence (P11609 19-297): T1 sequence (P11609 19-297 L168V) with V150L
T3 sequence (P01887 21-119 partner): T1 sequence (P01887 21-119 partner)

[4] = molecular target: T4, mCD1d (birA-tag mCD1d/β2m) (Mus musculus, UniProt P11609, V167L); settings: 16 h with 1 µg/ml α-GalCer; WT set at 100%
T4 construct: gene Cd1d1; soluble glycosylated CD1d/β2m heterodimer, birA tag, biotinylated; with Beta-2-microglobulin
T4 sequence (P11609 19-297 V167L): T1 sequence (P11609 19-297 L168V) with V149L, V150L
T4 sequence (P01887 21-119 partner): T1 sequence (P01887 21-119 partner)

[5] = molecular target: T5, mCD1d (birA-tag mCD1d/β2m) (Mus musculus, UniProt P11609, L102F); settings: 16 h with 1 µg/ml α-GalCer; WT set at 100%; lower than WT but never below 65%
T5 construct: gene Cd1d1; soluble glycosylated CD1d/β2m heterodimer, birA tag, biotinylated; with Beta-2-microglobulin
T5 sequence (P11609 19-297 L102F): T1 sequence (P11609 19-297 L168V) with L84F, V150L
T5 sequence (P01887 21-119 partner): T1 sequence (P01887 21-119 partner)

With `CCCCCCCCCCCCCCCCCCCCCCCCCC(=O)N[C@@H](CO[C@H]1O[C@H](CO)[C@H](O)[C@H](O)[C@H]1O)[C@H](O)[C@H](O)CCCCCCCCCCCCCC` [α-GalCer] the “antigen loading efficiency, % of WT” value [1] was “we measured the loading efficiency of α-GalCer on each mutant by surface plasmon resonance”, the “antigen loading efficiency, % of WT” value [2] was “Leu84Phe and Met62Ala mutants showed lower levels of antigen loading compared to wild type” and the “antigen loading efficiency, % of WT” value [3] was “Relative antigen loading efficiencies by the mCD1d mutants as determined by surface plasmon resonance”. The “antigen loading efficiency, % of WT” value [4] was “we measured the loading efficiency of α-GalCer on each mutant by surface plasmon resonance” and the “antigen loading efficiency, % of WT” value [5] was “Leu84Phe and Met62Ala mutants showed lower levels of antigen loading compared to wild type”.
